From patent US10239933B2, “Compositions and methods for modulating thrombin generation” (The Children's Hospital of Philadelphia, priority 2011, dated 2019)
“Also recorded” adds a separate entry of the source. Where two headings read alike, the source gives them in different places. Ends that are not written are not given here.

How the values were obtained:
[1] = biological target: T1, FXa/FVa (Homo sapiens, UniProt P12259); experiment: Prothrombin activation assay, FXa/FVa; assay type: biochemical
T1 construct: thrombin rapidly cleaves Factor V at Arg709 to produce heavy chain (HC); rapidly cleaves at Arg1018 and Arg1545 to produce light chain (LC); made in house
T1 sequence (P12259 29-737 limits assumed): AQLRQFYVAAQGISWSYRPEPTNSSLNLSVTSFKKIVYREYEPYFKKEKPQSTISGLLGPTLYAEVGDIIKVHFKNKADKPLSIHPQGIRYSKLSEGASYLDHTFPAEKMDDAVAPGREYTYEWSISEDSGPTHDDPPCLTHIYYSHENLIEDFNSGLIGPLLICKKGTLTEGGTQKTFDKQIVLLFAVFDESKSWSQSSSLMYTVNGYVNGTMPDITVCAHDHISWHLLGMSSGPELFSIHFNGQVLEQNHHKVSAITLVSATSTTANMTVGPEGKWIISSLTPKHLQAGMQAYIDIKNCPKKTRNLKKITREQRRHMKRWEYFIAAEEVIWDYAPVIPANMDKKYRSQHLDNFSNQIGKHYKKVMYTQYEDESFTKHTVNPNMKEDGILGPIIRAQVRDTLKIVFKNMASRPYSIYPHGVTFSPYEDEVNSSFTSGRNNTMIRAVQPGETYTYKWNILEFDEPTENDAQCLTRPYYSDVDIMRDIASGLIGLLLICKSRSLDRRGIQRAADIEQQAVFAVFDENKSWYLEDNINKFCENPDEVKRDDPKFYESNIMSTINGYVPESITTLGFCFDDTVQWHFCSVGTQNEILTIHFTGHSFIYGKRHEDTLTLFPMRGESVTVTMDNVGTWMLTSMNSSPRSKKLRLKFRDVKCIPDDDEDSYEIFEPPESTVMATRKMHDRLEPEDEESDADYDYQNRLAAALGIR
T1 sequence (P12259 1574-2224 limits assumed): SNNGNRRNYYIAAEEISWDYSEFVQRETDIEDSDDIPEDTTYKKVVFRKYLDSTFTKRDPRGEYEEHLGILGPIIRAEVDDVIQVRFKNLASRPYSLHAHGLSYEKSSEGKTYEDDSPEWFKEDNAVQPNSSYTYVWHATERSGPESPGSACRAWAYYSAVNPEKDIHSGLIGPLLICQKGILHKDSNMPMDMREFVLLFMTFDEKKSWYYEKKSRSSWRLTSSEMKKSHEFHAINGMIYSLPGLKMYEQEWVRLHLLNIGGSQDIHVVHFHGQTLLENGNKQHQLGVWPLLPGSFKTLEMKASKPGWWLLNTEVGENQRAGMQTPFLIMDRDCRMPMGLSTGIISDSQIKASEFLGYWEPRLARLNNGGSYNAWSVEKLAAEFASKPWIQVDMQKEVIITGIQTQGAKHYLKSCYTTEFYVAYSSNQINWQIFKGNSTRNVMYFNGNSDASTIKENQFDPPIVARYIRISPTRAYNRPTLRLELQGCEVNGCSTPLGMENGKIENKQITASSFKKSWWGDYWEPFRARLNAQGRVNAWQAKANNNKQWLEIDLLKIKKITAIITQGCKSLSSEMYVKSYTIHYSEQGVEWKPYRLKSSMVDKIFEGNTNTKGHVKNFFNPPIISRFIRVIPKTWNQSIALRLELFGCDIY
Description: (§1) Steady-state initial velocities of prothrombin cleavage were determined discontinuously at 25° C. by measuring the initial rate of thrombin formation. Reaction mixtures contained liposomes (75:25, PC:PS), prothrombin, the indicated Factor V variants, and the Factor V peptides FVBR or s46. The reactions were initiated by adding Factor Xa, and thrombin generation was determined at multiple time points by monitoring the cleavage of the chromogenic thrombin substrate S-2238.
(§2) Steady-state initial velocities of prothrombin cleavage were determined discontinuously at 25° C. as described (Camire, R. M. (2002) J. Biol. Chem., 277:37863-37870). Reaction mixtures containing PCPS (50 μM), DAPA (3 μM), prothrombin (1.4 μM), and either rFVa or the indicated FV-810 derivatives were incubated with B-domain peptides (0-10 μM) in assay buffer. […] Prothrombin activation was determined using the chromogenic thrombin substrate 52238 as described (Camire, R. M. (2002) J. Biol. Chem., 277:37863-37870).

[2] = biological target: T2, FV-810 (Homo sapiens, UniProt P12259, DEL839-1519); experiment: Prethrombin-2 activation, competition of BR and FXa for FV-810; assay type: biochemical; conditions: read-out: Kd for FV-810 from prethrombin-2 activation, model for tight binding
T2 construct: amino acids 1-28 are a signal peptide that is cleaved and numbering begins at residue 29; made in house
T2 sequence (P12259 with tags, fused parts or gaps DEL839-1519): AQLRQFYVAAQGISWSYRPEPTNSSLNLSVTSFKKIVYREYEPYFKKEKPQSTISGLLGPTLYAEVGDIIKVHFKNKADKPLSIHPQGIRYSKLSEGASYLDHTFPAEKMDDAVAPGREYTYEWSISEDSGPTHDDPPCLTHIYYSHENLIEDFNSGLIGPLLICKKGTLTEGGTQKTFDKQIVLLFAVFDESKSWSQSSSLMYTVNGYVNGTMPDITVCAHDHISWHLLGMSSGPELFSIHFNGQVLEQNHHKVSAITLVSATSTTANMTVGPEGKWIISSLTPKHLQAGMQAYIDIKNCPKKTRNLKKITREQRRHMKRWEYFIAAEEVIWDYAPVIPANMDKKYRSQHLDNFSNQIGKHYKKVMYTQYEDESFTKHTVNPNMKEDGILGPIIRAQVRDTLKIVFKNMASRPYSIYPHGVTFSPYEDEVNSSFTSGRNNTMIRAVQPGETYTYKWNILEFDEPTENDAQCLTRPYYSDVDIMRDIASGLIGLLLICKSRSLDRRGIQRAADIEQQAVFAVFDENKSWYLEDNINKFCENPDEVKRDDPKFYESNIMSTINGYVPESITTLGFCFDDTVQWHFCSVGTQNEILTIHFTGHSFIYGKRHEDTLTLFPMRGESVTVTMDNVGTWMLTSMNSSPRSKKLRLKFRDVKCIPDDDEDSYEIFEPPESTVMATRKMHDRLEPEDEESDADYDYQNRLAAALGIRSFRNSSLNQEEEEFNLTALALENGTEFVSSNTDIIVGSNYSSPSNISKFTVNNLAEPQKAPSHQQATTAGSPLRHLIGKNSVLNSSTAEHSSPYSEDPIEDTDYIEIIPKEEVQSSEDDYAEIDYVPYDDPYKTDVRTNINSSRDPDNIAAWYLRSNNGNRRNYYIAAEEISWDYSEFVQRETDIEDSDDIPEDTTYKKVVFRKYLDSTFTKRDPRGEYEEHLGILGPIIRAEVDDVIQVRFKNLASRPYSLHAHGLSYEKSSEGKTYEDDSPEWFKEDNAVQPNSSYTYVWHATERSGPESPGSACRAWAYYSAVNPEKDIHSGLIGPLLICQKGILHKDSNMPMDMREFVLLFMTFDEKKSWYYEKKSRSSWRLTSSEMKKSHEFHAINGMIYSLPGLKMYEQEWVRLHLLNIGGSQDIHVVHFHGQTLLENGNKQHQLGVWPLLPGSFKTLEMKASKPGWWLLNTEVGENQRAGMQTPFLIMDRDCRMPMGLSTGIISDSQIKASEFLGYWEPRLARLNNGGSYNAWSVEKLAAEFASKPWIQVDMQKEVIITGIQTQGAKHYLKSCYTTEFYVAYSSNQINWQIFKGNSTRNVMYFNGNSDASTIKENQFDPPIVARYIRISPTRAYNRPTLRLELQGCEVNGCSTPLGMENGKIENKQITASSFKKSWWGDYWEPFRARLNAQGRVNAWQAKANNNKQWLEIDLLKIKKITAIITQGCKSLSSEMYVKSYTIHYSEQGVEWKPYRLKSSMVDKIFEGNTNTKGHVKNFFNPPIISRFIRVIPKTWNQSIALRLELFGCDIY

[3] = biological target: T2, FV-810; experiment: Displacement of OG488-BR from preformed OG488-BR/FV-810 complex (fluorescence anisotropy); assay type: binding; conditions: 30 nM OG488-BR, 20 nM FV-810, 50 μM PCPS; for Kd: 25° C.
[4] = biological target: T3, FXa/FV-DT (Homo sapiens, UniProt P12259, DEL839-1519); experiment: Prothrombin activation assay, prothrombinase containing FV-810 (FV-DT); assay type: biochemical; conditions: peptide titrated, 1.4 μM prothrombin, 50 μM PCPS, 25° C.
T3 construct: amino acids 1-28 are a signal peptide that is cleaved and numbering begins at residue 29; made in house
T3 sequence (P12259 with tags, fused parts or gaps DEL839-1519): as above
Description: as §1, §2

[5] = biological target: T4, FV-810^R709Q (Homo sapiens, UniProt P12259, DEL839-1519/R737Q); experiment: Clotting assay with FV-810^R709Q; assay type: biochemical; conditions: prior to thrombin cleavage
T4 construct: amino acids 1-28 are a signal peptide that is cleaved and numbering begins at residue 29; made in house
T4 sequence (P12259 with tags, fused parts or gaps R737Q/DEL839-1519): as the sequence (P12259 with tags, fused parts or gaps DEL839-1519) above, with R709Q counted along it
Description: Residual clotting activity of Factor V variants was determined by prothrombin time-based clotting assays. Factor V variants were incubated with either the FVBR or s46 peptide, after which the mixtures were mixed with Factor V deficient plasma and clotting times were measured. Where indicated, the Factor V variants were activated by pre-incubation with thrombin prior to addition of the peptides.
FV derivatives (500 nM) were prepared in assay buffer. Where noted, FV derivatives were pretreated with 10 nM thrombin for 15 minutes at 37° C., followed by the addition of 15 nM hirudin. Samples were diluted to 0.25 nM in assay buffer with 0.1% BSA, and the specific clotting activity was measured in FV-deficient plasma (George King Bio-Medical, Overland Park, Kans.) with TriniCLOT PT Excel (Tcoag, Wicklow, Ireland) as described (Camire et al. (1998) Biochemistry 37:11896-11906). The data are presented as the means±S.D.

- effect on prothrombin activation by FXa/FVa [1]: did not affect
- effect on prothrombin activation by FXa/FVa ([1]; listed as BR peptide): no inhibitory effect
- Kd [2]: 34.2 ± 3.6 nM
- stoichiometry n, unlabeled BR [3]: 1.0±0.06 mol of BR/mol of FV-810
- Kd ([3]; assuming stoichiometry of 1 mol of FV-810/mol of BR peptide): 2.2 ± 0.2 nM
- Kd ([3]; n fitted): 2.1 ± 0.2 nM
- inhibition of prothrombin activation with FV-810 (FV-DT) [4]: inhibiting; also recorded: inhibition
- inhibition of prothrombin activation with FV-810 (FV-DT) ([4]; listed as BR peptide): effectively inhibited
- inhibition of FV-810^R709Q [5]: potently inhibited
Sequence: SRAWGESTPLANKPGKQSGHPKFPRVRHKSLQVRQDGGKSRLKKSQFLIKTRKKKKEK [FVBR]
